In brackets after ≈: the same amount, converted by molar mass. Read-outs that look alike come from different tables or passages of the source.
Columns and labels:
A. baumannii 17978 = test: Minimal inhibitory concentration assay in LB, A. baumannii; type: cell-based, Acinetobacter baumannii
E. coli MG1655 = test: Minimal inhibitory concentration assay in LB; type: cell-based, Escherichia coli; details: two-fold dilutions up to […]
[1] = test system: FeEnt utilization by E. coli OKN3 + pITS23 (FepA); test: Siderophore nutrition test, FeEnt; type: cell-based, Escherichia coli; details: for growth halo phenotype in siderophore nutrition test, in words: 100 μM compound (FIG. 6A)
[2] = test system: FeEnt utilization by A. baumannii; test: FeEnt siderophore nutrition test in A. baumannii; type: cell-based, Acinetobacter baumannii
[3] = test system: killing of E. coli MG1655 by colicin B (FepA, TonB-dependent); type: cell-based, Escherichia coli
[4] = test system: Fc utilization by E. coli OKN3 + pITS23 (transported by FhuA); test: Siderophore nutrition test, Fc; type: cell-based, Escherichia coli
[5] = test system: TonB-dependent FeEnt uptake through FepA (E. coli OKN3/pITS23FepAS271C-FM); test: microbe, parasite or virus in culture; type: cell-based, Escherichia coli; details: for IC50: read-out: 50% Inhibition, Concentration (IC50)
TonB = type: cell-based, Escherichia coli
[6] = test system: TonB-dependent FeEnt uptake through FepAS271C-FM; type: cell-based, Escherichia coli
[7] = Acinetobacter baumannii, 17978, read-out: MIC
[8] = E. coli OKN3 + pITS23, 50 μM FeEnt, 100 μM compound in DMSO, untreated 1.45 ± 0.123
[9] = A. baumannii, 50 μM FeEnt, 100 μM compound in DMSO, untreated 1.16 ± 0.065
[10] = percent killing of MG1655 by ColB in the presence of sub-toxic concentration of compound in DMSO, untreated 98.34 ± 2.38
[11] = E. coli OKN3 + pITS23, 50 μM Fc, 100 μM compound in DMSO, untreated 1.54 ± 0.105
[12] = Escherichia coli, MG1655, E. coli MG1655 in LB, dash = MIC >[…], read-out: MIC
[13] = halo increase >5% or no halo, killing prevented by >5%
[14] = Escherichia coli, […], cells pre-incubated 30 minutes at 37° C. with inhibitor
[15] = […], cells pre-incubated 30 minutes at 37° C. with inhibitor

In the case of O=c1c2ccccc2[se]n1-c1ccccc1 [Ebselen], the MIC (A. baumannii 17978; [7]) is reported as 32 µM (≈ 8.77 µg/mL), the MIC (E. coli MG1655; E. coli MG1655 in LB, dash = MIC >[…], read-out: MIC) is reported as 128 µM (≈ 35.1 µg/mL) and the “FeEnt Halo” value [1, 8] is reported as 0 cm. For the same molecule, the “FeEnt Halo” value [2, 9] was 0 cm, the “% Colicin B killing” value [3, 10] was 93.4 ± 2.25% and the “Fc Halo” value [4, 11] was 0 cm.
[N-]=[N+]=[N-] [Azide, azide] was tested, and the “100% Inhibition, Concentration (IC100)” value [5] was 18 mM and the IC50 [5] was 9 mM.
In the case of COc1cccc(O)c1O [3-Methoxycatechol], the MIC (A. baumannii 17978; [7]) is reported as > 512 µM, the MIC (E. coli MG1655; [12]) is reported as > 512 µM and the “FeEnt Halo” value [1, 8] is reported as 1.50 ± 0.100 cm. The “FeEnt Halo” value [2, 9] was 1.12 ± 0.025 cm, the “% Colicin B killing” value [3, 10] was 98.2 ± 2.27% and the “Fc Halo” value [4, 11] was 1.60 ± 0.500 cm.
arsenate was tested, and the “100% Inhibition, Concentration (IC100)” value [5] was 180 mM and the IC50 [5] was 90 mM.
For Zinc pyrithione, the MIC (A. baumannii 17978; read-out: MIC) was 16 µM, the “inhibition in the secondary screens (FeEnt utilization, Fc utilization, ColB killing)” value (from here on “inhibition in the secondary screens”) (TonB) was “inhibition in all three of the three secondary screens” and the “FeEnt Halo” value [1] was 0 cm. For the same molecule, the “FeEnt Halo” value [2] was 0 cm, the “% Colicin B killing” value [3] was 20.4 ± 5.90% and the “Fc Halo” value [4] was 0 cm.
O=c1oc2c(O)c(O)cc3c(=O)oc4c(O)c(O)cc1c4c23 [Ellagic acid] was tested, and the MIC (A. baumannii 17978; [7]) was 256 µM (≈ 77.4 µg/mL), the “inhibition in the secondary screens” value (TonB; [13]) was “inhibitory in two of the three secondary assays” and the MIC (E. coli MG1655; [12]) was > 512 µM. The “growth halo phenotype in siderophore nutrition test, in words” value [1] was “two unique halos”, the “FeEnt Halo” value [1, 8] was 1.61 ± 0.075 cm and the “FeEnt Halo” value [2, 9] was 1.08 ± 0.041 cm. For the same molecule, the “% Colicin B killing” value [3, 10] was 82.9 ± 3.75% and the “Fc Halo” value [4, 11] was 1.36 ± 0.197 cm.
With O=C1C(Cl)=C(Cl)C(=O)C(Cl)=C1Cl [P-Chloranil] the MIC (A. baumannii 17978; A. baumannii 17978 in LB, two-fold dilutions up to […], […]) was “— (If MIC >512 μM, value not listed)”, the “differential impact on transport of FeEnt, Fc and ColB, in words” value (TonB) was “inhibited ColB but not FeEnt or Fc transport” and the MIC (E. coli MG1655; E. coli MG1655 in LB, […]) was “— (If MIC >512 μM, value not listed)”. For the same molecule, the “FeEnt Halo” value [1, 8] was 1.51 ± 0.148 cm, the “FeEnt Halo” value [2, 9] was 1.14 ± 0.015 cm and the “% Colicin B killing” value [3] was 93.0 ± 3.36%. For the same molecule, the “Fc Halo” value [4, 11] was 1.57 ± 0.059 cm.
Cc1cc(N)c2ccccc2[n+]1CCCCCCCCCC[n+]1c(C)cc(N)c2ccccc21 [Dequalinium Chloride] was tested, and the MIC (A. baumannii 17978; [7]) was > 512 µM, the MIC (E. coli MG1655; [12]) was > 512 µM and the “FeEnt Halo” value [1, 8] was 1.43 ± 0.110 cm. For the same molecule, the “FeEnt Halo” value [2, 9] was 1.14 ± 0.017 cm, the “% Colicin B killing” value [3, 10] was 98.7 ± 1.10% and the “Fc Halo” value [4, 11] was 1.55 ± 0.131 cm.
O=[N+]([O-])c1ccc(O)c([N+](=O)[O-])c1 [DNP, 2,4-dinitrophenol] was tested, and the IC50 [5, 14] was 0.75 mM, the “effect on FeEnt binding and transport in words” value ([5]; FeEnt plus energy poison added to cells (FIG. 1A)) was “did not affect binding but prevented transport” and the “100% Inhibition, Concentration (IC100)” value [5, 15] was 1.5 mM.
C[C@@](Cc1ccc(O)c(O)c1)(NN)C(=O)O [Carbidopa] was tested, and the MIC (A. baumannii 17978; [7]) was > 512 µM, the MIC (E. coli MG1655; [12]) was > 512 µM and the “FeEnt Halo” value [1, 8] was 1.58 ± 0.089 cm. For the same molecule, the “FeEnt Halo” value [2, 9] was 1.10 ± 0.015 cm, the “% Colicin B killing” value [3, 10] was 96.0 ± 2.0% and the “Fc Halo” value [4, 11] was 1.65 ± 0.055 cm.
In the case of O=c1cc(-c2ccccc2)oc2cc(O)c(O)c(O)c12 [Baicalein], the MIC (A. baumannii 17978; [7]) is reported as > 512 µM, the “inhibition in the secondary screens” value (TonB; [13]) is reported as “inhibition in all three of the three secondary screens” and the MIC (E. coli MG1655; [12]) is reported as > 512 µM. For the same molecule, the “growth halo phenotype in siderophore nutrition test, in words” value [1] was “two unique halos”, the “FeEnt Halo” value [1, 8] was 1.65 ± 0.050 cm and the “FeEnt Halo” value [2, 9] was 1.23 ± 0.098 cm. For the same molecule, the “% Colicin B killing” value [3, 10] was 54.6 ± 13.2% and the “Fc Halo” value [4, 11] was 1.65 ± 0.045 cm.
CC(=O)[O-].CC(=O)[O-].[Cd+2] [Cadmium acetate] was tested, and the MIC (A. baumannii 17978; read-out: MIC) was 256 µM, the “inhibition in the secondary screens” value (TonB) was “inhibitory in two of the three secondary assays” and the “FeEnt Halo” value [1] was 2.22 ± 0.076 cm. The “FeEnt Halo” value [2] was 0 cm, the “% Colicin B killing” value [3] was 98.4 ± 0.43% and the “Fc Halo” value [4] was 2.08 ± 0.42 cm.
In the case of N.N.O=C([O-])C1(C(=O)[O-])CCC1.[Pt+2] [Carboplatin], the MIC (A. baumannii 17978; A. baumannii 17978 in LB, two-fold dilutions up to […], dash = MIC >[…]) is reported as “— (If MIC >512 μM, value not listed)”, the MIC (E. coli MG1655; E. coli MG1655 in LB, dash = MIC >[…]) is reported as “— (If MIC >512 μM, value not listed)” and the “FeEnt Halo” value [1, 8] is reported as 1.54 ± 0.031 cm. For the same molecule, the “FeEnt Halo” value [2, 9] was 1.10 ± 0.050 cm, the “% Colicin B killing” value [3, 10] was 100 ± 0.00% and the “Fc Halo” value [4, 11] was 1.62 ± 0.015 cm.
For N#CC(C#N)=NNc1cccc(Cl)c1 [CCCP, carbonyl cyanide m-chlorophenylhydrazone], the IC50 [5, 14] was 0.005 mM, the “100% Inhibition, Concentration (IC100)” value [5, 15] was 0.01 mM and the “fluorescence recovery (FeEnt uptake) in words” value ([6]; 96-well plate, 10 nM FeEnt, CCCP 20 uM, 50 min time course (FIG. 2B)) was “fully prevented fluorescence recovery”. The “recovered fluorescence in words” value ([6]; 384-well plate format, increasing concentrations of CCCP (FIG. 3)) was “dose-responsive decrease in recovered fluorescence”.
For Thimerosal, the MIC (A. baumannii 17978; read-out: MIC) was 1 µM, the “inhibition in the secondary screens” value (TonB) was “inhibition in all three of the three secondary screens” and the “FeEnt Halo” value [1] was 0 cm. For the same molecule, the “FeEnt Halo” value [2] was 0 cm, the “% Colicin B killing” value [3] was 98.6 ± 0.98% and the “Fc Halo” value [4] was 0 cm.
